# Assay results as given in US8796310B2, “Amino-pyridine-containing spleen tyrosine kinase (SYK) inhibitors” (Merck Sharp & Dohme Corp., priority 2011, dated 2014).
# Counter-ions that a name gives are not always drawn.
# Legend:
# [1] = target: recombinant human GST-Syk (Homo sapiens (Human), UniProt P43405); assay: Homogeneous Time-Resolved Fluorescence (HTRF) assay for the recombinant human Syk enzyme; assay type: biochemical; conditions: GST-hSyk 5 pM, ATP 25 μM, 10-dose titration 10 μM to 0.508 nM; values below lowest test concentration given as <0.50
# Method: Biological Assay Homogeneous Time-Resolved Fluorescence (HTRF) Assay for the Recombinant Human Syk Enzyme
# A recombinant GST-hSyk fusion protein was used to measure potency of compounds to inhibit human Syk activity. […] Final volume of the reaction was 10 μL. Phosphorylation of the peptide was allowed to proceed for 45′ at rt. To quench the reaction and detect the phosphorylated product, 2 nM of a Europium-anti-phosphotyrosine antibody (Perkin Elmer #AD0161) and 70 nM SA-APC (Perkin-Elmer #CR130-100) were added together in 15 mM Tris pH 7.5, 40 mM EDTA, 0.01% tween 20. Final volume of the quenching solution was 10 μL. The resulting HTRF signal was measured after 30 minutes on a EnVision (Perkin-Elmer) reader using a time-resolved fluorescence protocol.
# PGD2 = conditions: dosed intranasally, phase I/II study, allergic rhinitis; cited from earlier work
# [2] = phase II clinical trial, allergic rhinitis; cited from earlier work
Compound,IC50 [1],other results
"Cc1cc(Nc2cc(OC(C)(C)C)ccn2)nc(-c2cnc([C@@]3(O)CCCc4cc(C(=O)O)ccc43)s2)c1 [Example 1, (R)-5-(5-{6-[(4-Tert-butoxypyridin-2-yl)amino]-4-methylpyridin-2-yl}-1,3-thiazol-2-yl)-5-hydroxy-5,6,7,8-tetrahydronaphthalene-2-carboxylic acid, ammonia salt]",< 0.5 nM,–
"Cc1cc(Nc2cc(C3CCC3)ccn2)nc(-c2cnc(C3(O)CCCc4cc(C(=O)O)ccc43)s2)c1 (stereo not drawn) [Example 1K, 5-(5-{6-[(4-cyclobutylpyridin-2-yl)amino]-4-methylpyridin-2-yl}-1,3-thiazol-2-yl)-5-hydroxy-5,6,7,8-tetrahydronaphthalene-2-carboxylic acid]",< 0.5 nM,–
"CCCc1ccnc(Nc2cc(C)cc(-c3cnc(C4(O)CCCc5cc(C(=O)O)ccc54)s3)n2)c1 (stereo not drawn) [Example 1M, 5-hydroxy-5-(5-{4-methyl-6-[(4-propylpyridin-2-yl)amino]pyridin-2-yl}-1,3-thiazol-2-yl)-5,6,7,8-tetrahydronaphthalene-2-carboxylic acid]",< 0.5 nM,–
"CCOc1ccnc(Nc2cc(C)cc(-c3cnc(C4(O)CCCc5cc(C(=O)O)ccc54)s3)n2)c1 (stereo not drawn) [Example 1N, 5-(5-{6-[(4-ethoxypyridin-2-yl)amino]-4-methylpyridin-2-yl}-1,3-thiazol-2-yl)-5-hydroxy-5,6,7,8-tetrahydronaphthalene-2-carboxylic acid]",< 0.5 nM,–
"CCc1ccnc(Nc2cc(C)cc(-c3cnc(C4(O)CCCc5cc(C(=O)O)ccc54)s3)n2)c1 (stereo not drawn) [Example 1P, 5-(5-{6-[(4-ethylpyridin-2-yl)amino]-4-methylpyridin-2-yl}-1,3-thiazol-2-yl)-5-hydroxy-5,6,7,8-tetrahydronaphthalene-2-carboxylic acid]",< 0.5 nM,–
"Cc1cc(Nc2cc(OC(C)C)ccn2)nc(-c2cnc(C3(O)CCCc4cc(C(=O)O)ccc43)s2)c1 (stereo not drawn) [Example 1R, 5-hydroxy-5-[5-(4-methyl-6-{[4-(propan-2-yloxy)pyridin-2-yl]amino}pyridin-2-yl)-1,3-thiazol-2-yl]-5,6,7,8-tetrahydronaphthalene-2-carboxylic acid]",< 0.5 nM,–
"Cc1cc(Nc2cc(-c3nnc(C)o3)ccn2)nc(-c2cnc(C3(O)CCCc4cc(C(=O)O)ccc43)s2)c1 (stereo not drawn) [Example 1S, 5-hydroxy-5-[5-(4-methyl-6-{[4-(5-methyl-1,3,4-oxadiazol-2-yl)pyridin-2-yl]amino}pyridin-2-yl)-1,3-thiazol-2-yl]-5,6,7,8-tetrahydronaphthalene-2-carboxylic acid]",< 0.5 nM,–
"Cc1cc(Nc2cc(OC3CCOC3)ccn2)nc(-c2cnc(C3(O)CCCc4cc(C(=O)O)ccc43)s2)c1 (stereo not drawn) [Example 1T, 5-hydroxy-5-[5-(4-methyl-6-{[4-(tetrahydrofuran-3-yloxy)pyridin-2-yl]amino}pyridin-2-yl)-1,3-thiazol-2-yl]-5,6,7,8-tetrahydronaphthalene-2-carboxylic acid]",< 0.5 nM,–
"Cc1cc(Nc2cc(C3CC3)ccn2)nc(-c2cnc(C3(O)CCCc4cc(C(=O)O)ccc43)s2)c1 (stereo not drawn) [Example 1U, 5-(5-{6-[(4-cyclopropylpyridin-2-yl)amino]-4-methylpyridin-2-yl}-1,3-thiazol-2-yl)-5-hydroxy-5,6,7,8-tetrahydronaphthalene-2-carboxylic acid]",< 0.5 nM,–
"Cc1cc(Nc2cc(C(C)C)ccn2)nc(-c2cnc(C3(O)CCCc4cc(C(=O)O)ccc43)s2)c1 (stereo not drawn) [Example 1V, 5-hydroxy-5-[5-(4-methyl-6-{[4-(1-methylethyl)pyridin-2-yl]amino}pyridin-2-yl)-1,3-thiazol-2-yl]-5,6,7,8-tetrahydronaphthalene-2-carboxylic acid]",< 0.5 nM,–
"Cc1cc(Nc2cc(C(F)(F)F)ccn2)nc(-c2cnc([C@@]3(O)CCCc4cc(C(=O)NS(=O)(=O)C5CC5)ccc43)s2)c1 [Example 22A, (R)-N-(cyclopropylsulfonyl)-5-hydroxy-5-[5-(4-methyl-6-{[4-(trifluoromethyl)pyridin-2-yl]amino}pyridin-2-yl)-1,3-thiazol-2-yl]-5,6,7,8-tetrahydronaphthalene-2-carboxamide]",< 0.5 nM,–
"Cc1cc(Nc2cc(C(F)(F)F)ccn2)nc(-c2cnc([C@@]3(O)CCCc4cc(C(=O)Nc5nnn[nH]5)ccc43)s2)c1 [Example 22E, (R)-5-hydroxy-5-[5-(4-methyl-6-{[4-(trifluoromethyl)pyridin-2-yl]amino}pyridin-2-yl)-1,3-thiazol-2-yl]-N-1H-tetrazol-5-yl-5,6,7,8-tetrahydronaphthalene-2-carboxamide]",< 0.5 nM,–
Oc1cccc(Nc2ncc(F)c(Nc3cccc(O)c3)n2)c1 [Example R112],–,clinical safety (PGD2): safe across a range of indicators; decrease in PGD2 (PGD2): statistically significant decrease; efficacy versus placebo [2]: lack of efficacy

# More lines, main results first:
IC50 [1],Compound,other results
< 0.5 nM,"Cc1cc(Nc2cc(C(F)(F)F)ccn2)nc(-c2cnc(C3(O)CCCCc4c(C(=O)O)cccc43)s2)c1 (single isomer, unassigned) [Example 15G, (R or S)-5-hydroxy-5-[5-(4-methyl-6-{[4-(trifluoromethyl)pyridin-2-yl]amino}pyridin-2-yl)-1,3-thiazol-2-yl]-6,7,8,9-tetrahydro-5H-benzo[7]annulene-1-carboxylic acid]",–
< 0.5 nM,"Cc1cc(Nc2cc(C(F)(F)F)ccn2)nc(-c2cnc(C3(O)CCCCc4c(C(=O)O)cccc43)s2)c1 (single isomer, unassigned) [Example 15H, (R or S)-5-hydroxy-5-[5-(4-methyl-6-{[4-(trifluoromethyl)pyridin-2-yl]amino}pyridin-2-yl)-1,3-thiazol-2-yl]-6,7,8,9-tetrahydro-5H-benzo[7]annulene-1-carboxylic acid]",–
< 0.5 nM,"Cc1cc(Nc2cc(C(F)F)ccn2)nc(-c2cnc(C3(O)CCCc4cc(C(=O)O)ccc43)s2)c1 (stereo not drawn) [Example 1A, 5-[5-(6-{[4-(difluoromethyl)pyridin-2-yl]amino}-4-methylpyridin-2-yl)-1,3-thiazol-2-yl]-5-hydroxy-5,6,7,8-tetrahydronaphthalene-2-carboxylic acid]",–
< 0.5 nM,"Cc1cc(Nc2cc(N3CCN(CCN)CC3)ccn2)nc(-c2cnc(C3(O)CCCc4cc(C(=O)O)ccc43)s2)c1 (stereo not drawn) [Example 1C, 5-{5-[6-({4-[4-(2-aminoethyl)piperazin-1-yl]pyridin-2-yl}amino)-4-methylpyridin-2-yl]-1,3-thiazol-2-yl}-5-hydroxy-5,6,7,8-tetrahydronaphthalene-2-carboxylic acid]",–
< 0.5 nM,"Cc1cc(Nc2cc(N3CCNCC3)ccn2)nc(-c2cnc(C3(O)CCCc4cc(C(=O)O)ccc43)s2)c1 (stereo not drawn) [Example 1D, 5-hydroxy-5-[5-(4-methyl-6-{[4-(piperazin-1-yl)pyridin-2-yl]amino}pyridin-2-yl)-1,3-thiazol-2-yl]-5,6,7,8-tetrahydronaphthalene-2-carboxylic acid]",–
< 0.5 nM,"Cc1cc(Nc2cc(-n3cc(C)cn3)ccn2)nc(-c2cnc(C3(O)CCCc4cc(C(=O)O)ccc43)s2)c1 (stereo not drawn) [Example 1E, 5-hydroxy-5-[5-(4-methyl-6-{[4-(4-methyl-1H-pyrazol-1-yl)pyridin-2-yl]amino}pyridin-2-yl)-1,3-thiazol-2-yl]-5,6,7,8-tetrahydronaphthalene-2-carboxylic acid]",–
< 0.5 nM,"Cc1cc(Nc2cc(-n3cccn3)ccn2)nc(-c2cnc(C3(O)CCCc4cc(C(=O)O)ccc43)s2)c1 (stereo not drawn) [Example 1F, 5-hydroxy-5-[5-(4-methyl-6-{[4-(1H-pyrazol-1-yl)pyridin-2-yl]amino}pyridin-2-yl)-1,3-thiazol-2-yl]-5,6,7,8-tetrahydronaphthalene-2-carboxylic acid]",–
< 0.5 nM,"Cc1ccnc(Nc2cc(C)cc(-c3cnc(C4(O)CCCc5cc(C(=O)O)ccc54)s3)n2)c1 (stereo not drawn) [Example 1H, 5-hydroxy-5-(5-{4-methyl-6-[(4-methylpyridin-2-yl)amino]pyridin-2-yl}-1,3-thiazol-2-yl)-5,6,7,8-tetrahydronaphthalene-2-carboxylic acid]",–
< 0.5 nM,"Cc1cc(Nc2cc(-n3ccc(C)n3)ccn2)nc(-c2cnc(C3(O)CCCc4cc(C(=O)O)ccc43)s2)c1 (stereo not drawn) [Example 1J, 5-hydroxy-5-[5-(4-methyl-6-{[4-(3-methyl-1H-pyrazol-1-yl)pyridin-2-yl]amino}pyridin-2-yl)-1,3-thiazol-2-yl]-5,6,7,8-tetrahydronaphthalene-2-carboxylic acid]",–
